Results as given in patent publication US20260070895A1, “CRYSTALLINE FORMS” (QUIMATRYX, S.L., priority 2022, published 2026).
“Also recorded” adds a separate entry of the source.

Columns and labels:
Type in all cases: physicochemical
[1] = Photostability at solid state (chemical purity by HPLC after illumination); settings: for HPLC peak area, QTX125 RRT 1.00 / HPLC peak area, RRT 1.04 / HPLC peak area, RRT 1.12 / degradation (in words) / colour change of the solid material: solid-state; for degradation (in words): up to 171 hours
Experimental: (§1) The method for determining purity by HPLC—used throughout these examples—used the following parameters:
(§2) The photostability of novel crystalline forms of QTX125 was assessed at solid state and in solution. Where ‘forced illumination’ conditions were used, samples were illuminated at 12 Klux/hour and 2.8 UV W/m^2/hour. Samples were stored at a temperature of 30° C. Following incubation, the chemical purity of QTX125 was measured by HPLC.
(§3) The following index is provided to aid navigation of the data presented in Tables 3.1.1 to 3.3.6: • 3.1.x—Assessment of the photostability of QTX125 Form 2. • 3.2.x—Assessment of the photostability of amorphous QTX125. • 3.3.x—Assessment of the photostability of the QTX125 1:2 L-Lysine adduct. • 3.x.1—Samples (at solid state) stored in unsealed clear glass bottles, subject to forced illumination. • 3.x.2—Samples (at solid state) sealed under nitrogen in clear glass bottles, subject to forced illumination. • 3.x.3—Samples (at solid state) sealed under nitrogen in amber glass bottles, illuminated under ambient laboratory conditions • 3.x.4—Samples (at solid state) sealed under nitrogen in amber glass bottles, subject to forced illumination. • 3.x.5—Samples (in solution) sealed under nitrogen in amber glass bottles, illuminated under ambient laboratory conditions. • 3.x.6—Samples (in solution) sealed under nitrogen in amber glass bottles, subject to forced illumination.

[2] = Photostability in solution (THF and water), HPLC; settings: for HPLC peak area, QTX125 RRT 1.00 / HPLC peak area, RRT 1.04 / HPLC peak area, RRT 1.12 / degradation (in words): in solution (THF and water), sealed under nitrogen in amber glass bottles; for degradation (in words): up to 171 hours
Experimental: as §1, §2, §3

[3] = Aqueous solubility at 37° C. (HPLC of filtered suspension); settings: for peak solubility: at 1 hour
Experimental: The solubility of novel crystalline forms of QTX125 was assessed in the following aqueous solutions: (i) phosphate buffer, pH 3.5, 0.9% w/v sodium chloride; (ii) phosphate buffer, pH 6.5, 0.9% w/v sodium chloride; (iii) acetate buffer, pH 4.5, 0.9% w/v sodium chloride; (iv) citro-phosphate buffer, pH 4.5, 0.9% w/v sodium chloride; (v) sodium chloride, 0.9% w/v and (vi) deionised water. All assays were completed at 37° C.
In brief, 30 mg QTX125 was dispensed into vessels followed by 5 mL of the appropriate aqueous buffer. Mixtures were suspended by agitation and heated to 37° C. At various fixed intervals, an 0.4 mL aliquot of the suspension was removed, filtered and diluted for examination by HPLC. A single HPLC reference sample was used.

[4] = sealed under nitrogen in amber glass bottles, ambient laboratory conditions, 0 hours
[5] = sealed under nitrogen in amber glass bottles, ambient laboratory conditions, 3 hours
[6] = sealed under nitrogen in amber glass bottles, ambient laboratory conditions, 50 hours
[7] = sealed under nitrogen in amber glass bottles, ambient laboratory conditions, 171 hours
[8] = sealed under nitrogen in amber glass bottles, forced illumination, 171 hours
[9] = sealed under nitrogen in clear glass bottles, forced illumination
[10] = sealed under nitrogen in clear glass bottles, forced illumination, 0 hours
[11] = sealed under nitrogen in clear glass bottles, forced illumination, 3 hours
[12] = sealed under nitrogen in clear glass bottles, forced illumination, 50 hours
[13] = sealed under nitrogen in clear glass bottles, forced illumination, 171 hours
[14] = unsealed clear glass bottles, forced illumination
[15] = unsealed clear glass bottles, forced illumination, 0 hours
[16] = unsealed clear glass bottles, forced illumination, 3 hours
[17] = unsealed clear glass bottles, forced illumination, 50 hours
[18] = unsealed clear glass bottles, forced illumination, 171 hours
[19] = ambient laboratory conditions, 171 hours

For `NCCCC[C@H](N)C(=O)O.NCCCC[C@H](N)C(=O)O.O=C(NO)c1ccc(CNC(=O)c2[nH]c(-c3ccc(O)cc3)cc2-c2ccoc2)cc1` [QTX125 1:2 L-Lysine adduct], the “photostability as compared to amorphous QTX125” value ([1]; at solid state) was “enhanced photostability; also recorded: improved photostability”, the “HPLC peak area, QTX125 RRT 1.00” value [1, 4] was 96.83% and the “HPLC peak area, RRT 1.04” value [1, 4] was 1.15%. For the same compound, the “HPLC peak area, QTX125 RRT 1.00” value [1, 5] was 96.82%, the “HPLC peak area, RRT 1.04” value [1, 5] was 1.21% and the “HPLC peak area, QTX125 RRT 1.00” value [1, 6] was 97.84%. The “HPLC peak area, RRT 1.04” value [1, 6] was 0.58%, the “HPLC peak area, QTX125 RRT 1.00” value [1, 7] was 97.29% and the “HPLC peak area, RRT 1.04” value [1, 7] was 1.30%. The “HPLC peak area, RRT 1.12” value [1, 7] was 0.35%, the “degradation (in words)” value ([1]; sealed under nitrogen in amber glass bottles, ambient laboratory conditions) was “little evidence of degradation” and the “HPLC peak area, QTX125 RRT 1.00” value [1, 8] was 96.27%. For the same compound, the “HPLC peak area, RRT 1.04” value [1, 8] was 1.74%, the “HPLC peak area, RRT 1.12” value [1, 8] was 0.59% and the “degradation (in words)” value ([1]; sealed under nitrogen in amber glass bottles, forced illumination) was “degrades slightly”. The “colour change of the solid material” value [1, 9] was “A change in the colour of the solid material was not identified”, the “HPLC peak area, QTX125 RRT 1.00” value [1, 10] was 96.83% and the “HPLC peak area, RRT 1.04” value [1, 10] was 1.15%. The “HPLC peak area, QTX125 RRT 1.00” value [1, 11] was 95.57%, the “HPLC peak area, RRT 1.04” value [1, 11] was 1.90% and the “HPLC peak area, RRT 1.12” value [1, 11] was 0.65%. For the same compound, the “HPLC peak area, QTX125 RRT 1.00” value [1, 12] was 89.67%, the “HPLC peak area, RRT 1.04” value [1, 12] was 5.79% and the “HPLC peak area, RRT 1.12” value [1, 12] was 2.74%. For the same compound, the “HPLC peak area, QTX125 RRT 1.00” value [1, 13] was 85.21%, the “HPLC peak area, RRT 1.04” value [1, 13] was 9.04% and the “HPLC peak area, RRT 1.12” value [1, 13] was 3.94%. The “degradation (in words)” value [1, 9] was “degrades under forced illumination to two principal components”, the “colour change of the solid material” value [1, 14] was “A change in the colour of the solid material was not identified” and the “HPLC peak area, QTX125 RRT 1.00” value [1, 15] was 96.83%. For the same compound, the “HPLC peak area, RRT 1.04” value [1, 15] was 1.15%, the “HPLC peak area, QTX125 RRT 1.00” value [1, 16] was 95.51% and the “HPLC peak area, RRT 1.04” value [1, 16] was 1.98%. For the same compound, the “HPLC peak area, QTX125 RRT 1.00” value [1, 17] was 88.96%, the “HPLC peak area, RRT 1.04” value [1, 17] was 6.16% and the “HPLC peak area, RRT 1.12” value [1, 17] was 3.08%. For the same compound, the “HPLC peak area, QTX125 RRT 1.00” value [1, 18] was 84.14%, the “HPLC peak area, RRT 1.04” value [1, 18] was 9.20% and the “HPLC peak area, RRT 1.12” value [1, 18] was 4.38%. The “degradation (in words)” value [1, 14] was “degrades under forced illumination to two principal components”, the “HPLC peak area, QTX125 RRT 1.00” value [2, 19] was 93.18% and the “HPLC peak area, RRT 1.04” value [2, 19] was 1.50%. The “HPLC peak area, RRT 1.12” value [2, 19] was 0.97%, the “degradation (in words)” value ([2]; ambient laboratory conditions) was “degrades” and the “HPLC peak area, QTX125 RRT 1.00” value ([2]; forced illumination, 0 hours) was 96.83%. For the same compound, the “HPLC peak area, RRT 1.04” value ([2]; forced illumination, 0 hours) was 1.15%, the “HPLC peak area, QTX125 RRT 1.00” value ([2]; forced illumination, 3 hours) was 98.01% and the “HPLC peak area, RRT 1.04” value ([2]; forced illumination, 3 hours) was 0.71%. The “HPLC peak area, RRT 1.12” value ([2]; forced illumination, 3 hours) was 0.33%, the “HPLC peak area, QTX125 RRT 1.00” value ([2]; forced illumination, 50 hours) was 84.17% and the “HPLC peak area, RRT 1.04” value ([2]; forced illumination, 50 hours) was 1.03%. The “HPLC peak area, RRT 1.12” value ([2]; forced illumination, 50 hours) was 2.14%, the “HPLC peak area, QTX125 RRT 1.00” value ([2]; forced illumination, 171 hours) was 89.96% and the “HPLC peak area, RRT 1.04” value ([2]; forced illumination, 171 hours) was 2.82%. For the same compound, the “HPLC peak area, RRT 1.12” value ([2]; forced illumination, 171 hours) was 1.17%, the “degradation (in words)” value ([2]; forced illumination) was “degrades” and the “photostability as compared to amorphous QTX125 and Form 2” value ([2]; in solution, amber glass bottles, ambient laboratory conditions, 171 hours) was “enhanced photostability”. The “photostability as compared to amorphous QTX125 or Form 2” value ([2]; in solution, amber glass bottles, forced illumination, 171 hours) was “enhanced photostability”, the “photostability as compared to both QTX125 Form 2 and amorphous QTX125” value ([2]; stored in solution (conclusion)) was “improved photostability” and the “solubility in a saline solution compared to other forms, including an amorphous form” value [3] was “more soluble”. The “PXRD analysis of the solid recovered at 24 hours” value ([3]; aqueous buffer, 37° C.) was “identified the precipitating entity as Form 2”, the “concentration of QTX125 (solubility)” value ([3]; buffer (i) phosphate buffer, pH 3.5, 0.9% w/v sodium chloride, 37° C., 1 hour) was 0.28 µg/mL and the “concentration of QTX125 (solubility)” value ([3]; buffer (i) phosphate buffer, pH 3.5, 0.9% w/v sodium chloride, 37° C., 4 hours) was 0.33 µg/mL. For the same compound, the “concentration of QTX125 (solubility)” value ([3]; buffer (i) phosphate buffer, pH 3.5, 0.9% w/v sodium chloride, 37° C., 7 hours) was 0.23 µg/mL, the “concentration of QTX125 (solubility)” value ([3]; buffer (i) phosphate buffer, pH 3.5, 0.9% w/v sodium chloride, 37° C., 24 hours) was 0.34 µg/mL and the “concentration of QTX125 (solubility)” value ([3]; buffer (ii) phosphate buffer, pH 6.5, 0.9% w/v sodium chloride, 37° C., 1 hour) was 0.32 µg/mL. For the same compound, the “concentration of QTX125 (solubility)” value ([3]; buffer (ii) phosphate buffer, pH 6.5, 0.9% w/v sodium chloride, 37° C., 4 hours) was 0.24 µg/mL, the “concentration of QTX125 (solubility)” value ([3]; buffer (ii) phosphate buffer, pH 6.5, 0.9% w/v sodium chloride, 37° C., 7 hours) was 0.39 µg/mL and the “concentration of QTX125 (solubility)” value ([3]; buffer (ii) phosphate buffer, pH 6.5, 0.9% w/v sodium chloride, 37° C., 24 hours) was 0.28 µg/mL. The “concentration of QTX125 (solubility)” value ([3]; buffer (iii) acetate buffer, pH 4.5, 0.9% w/v sodium chloride, 37° C., 1 hour) was 0.25 µg/mL, the “concentration of QTX125 (solubility)” value ([3]; buffer (iii) acetate buffer, pH 4.5, 0.9% w/v sodium chloride, 37° C., 4 hours) was 0.35 µg/mL and the “concentration of QTX125 (solubility)” value ([3]; buffer (iii) acetate buffer, pH 4.5, 0.9% w/v sodium chloride, 37° C., 7 hours) was 0.35 µg/mL. The “concentration of QTX125 (solubility)” value ([3]; buffer (iii) acetate buffer, pH 4.5, 0.9% w/v sodium chloride, 37° C., 24 hours) was 0.33 µg/mL, the “concentration of QTX125 (solubility)” value ([3]; buffer (iv) citro-phosphate buffer, pH 4.5, 0.9% w/v sodium chloride, 37° C., 1 hour) was 0.33 µg/mL and the “concentration of QTX125 (solubility)” value ([3]; buffer (iv) citro-phosphate buffer, pH 4.5, 0.9% w/v sodium chloride, 37° C., 4 hours) was 0.29 µg/mL. The “concentration of QTX125 (solubility)” value ([3]; buffer (iv) citro-phosphate buffer, pH 4.5, 0.9% w/v sodium chloride, 37° C., 7 hours) was 0.37 µg/mL, the “concentration of QTX125 (solubility)” value ([3]; buffer (iv) citro-phosphate buffer, pH 4.5, 0.9% w/v sodium chloride, 37° C., 24 hours) was 0.27 µg/mL and the “concentration of QTX125 (solubility)” value ([3]; buffer (v) sodium chloride, 0.9% w/v, 37° C., 1 hour) was 29.81 µg/mL. The “concentration of QTX125 (solubility)” value ([3]; buffer (v) sodium chloride, 0.9% w/v, 37° C., 4 hours) was 16.91 µg/mL, the “concentration of QTX125 (solubility)” value ([3]; buffer (v) sodium chloride, 0.9% w/v, 37° C., 7 hours) was 8.51 µg/mL and the “concentration of QTX125 (solubility)” value ([3]; buffer (v) sodium chloride, 0.9% w/v, 37° C., 24 hours) was 4.52 µg/mL. The “concentration of QTX125 (solubility)” value ([3]; buffer (vi) deionised water, 37° C., 1 hour) was 24.5 µg/mL, the “concentration of QTX125 (solubility)” value ([3]; buffer (vi) deionised water, 37° C., 4 hours) was 16.22 µg/mL and the “concentration of QTX125 (solubility)” value ([3]; buffer (vi) deionised water, 37° C., 7 hours) was 10.14 µg/mL. For the same compound, the “concentration of QTX125 (solubility)” value ([3]; buffer (vi) deionised water, 37° C., 24 hours) was 7.76 µg/mL, the “solubility (in words)” value ([3]; buffers (i) to (iv), 37° C.) was “very low” and the peak solubility ([3]; deionised water (buffer vi), 37° C., listed as 1:2 L-Lysine adduct) was 24.5 µg/mL. It also gave a peak solubility ([3]; deionised water (buffer vi), 37° C., listed as adduct) of 24.5 µg/mL, a peak solubility ([3]; sodium chloride 0.9% w/v (buffer v), 37° C., listed as 1:2 L-Lysine adduct) of 29.81 µg/mL and a peak solubility ([3]; sodium chloride 0.9% w/v (buffer v), 37° C., listed as adduct) of 29.81 µg/mL.
